In article PMC5656653, “Evaluation of Ga-DOTA-(D-Asp)n as bone imaging agents: D-aspartic acid peptides as carriers to bone” (Scientific Reports, 2017):
Where a SMILES comes first, the peptide text is derived from it. The star is where a group is joined. DOTA = O=C(O)CN1CCN(CC(=O)O)CCN(CC(=O)*)CCN(CC(=O)O)CC1

What was measured:
[1] = Urine analyses by RP-HPLC after i.v. injection; format: in vivo; conditions: mice, urine from bladder at 1 h post-injection
Protocol: ^67Ga-DOTA-(L-Asp)14 was prepared according to a method described previously. ^67Ga-DOTA-(L-Asp)14 or ^67Ga-DOTA-(D-Asp)14 solution (370 kBq / 200 μL) was intravenously injected to 6-week-old male ddY mice. At 1 h post-injection, mice were sacrificed and their […] were taken from the bladders. After ultrafiltration (Microcon-30, Merck KGaA), the filtrate samples were analyzed by RP-HPLC at a flow rate of 1 mL/min with a gradient mobile phase from water containing 0.1% TFA to 20% methanol in water containing 0.1% TFA for 20 min.

[2] = set-up: method as in PMID 24391942; conditions: normal mice; cited from earlier work
[3] = Biodistribution experiments in normal mice after i.v. injection; format: in vivo; conditions: for tissue uptake dose at 10 min / tissue uptake dose at 1 h / tissue uptake dose at 3 h: male, ddY, total radioactivity, Biodistribution of radioactivity; for Biodistribution of radioactivity, Blood / Biodistribution of radioactivity, Bone (Femur) / Biodistribution of radioactivity, Brain / Biodistribution of radioactivity, Heart / Biodistribution of radioactivity, Kidney / Biodistribution of radioactivity, Large-intestine / Biodistribution of radioactivity, Liver / Biodistribution of radioactivity, Lung / Biodistribution of radioactivity, Muscle / Biodistribution of radioactivity, Pancreas / Biodistribution of radioactivity, Small-intestine / Biodistribution of radioactivity, Spleen / F/B ratio (Femur:blood ratio) / Biodistribution of radioactivity, Stomach: mice, mean (SD); for Biodistribution of radioactivity, Stomach: footnote b
Procedure, shortened: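 Male ddY mice (6 weeks, 27–32 g) received tracer i.v. (37–740 kBq/100 μL); 4–5 per group sacrificed at 10, 60 and 180 min. Weighed tissues and whole left femur (bone) gamma-counted with background and decay correction.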

[4] = mouse, in vivo, iv, Bone (Femur)
[5] = mouse, in vivo, iv, Large-intestine
[6] = mouse, in vivo, iv, Small-intestine

O=C(O)C[C@H](NC(=O)[C@H](CC(=O)O)NC(=O)[C@H](CC(=O)O)NC(=O)[C@H](CC(=O)O)NC(=O)[C@H](CC(=O)O)NC(=O)[C@H](CC(=O)O)NC(=O)[C@H](CC(=O)O)NC(=O)[C@H](CC(=O)O)NC(=O)[C@H](CC(=O)O)NC(=O)[C@H](CC(=O)O)NC(=O)[C@H](CC(=O)O)NC(=O)[C@H](CC(=O)O)NC(=O)[C@H](CC(=O)O)NC(=O)[C@H](CC(=O)O)NC(=O)CN1CCN(CC(=O)O)CCN(CC(=O)O)CCN(CC(=O)O)CC1)C(=O)O [^67Ga-DOTA-(L-Asp)14, metal not drawn] ({DOTA}-DDDDDDDDDDDDDD-OH)
Ratio of the intact complex in urine [1]: 55.0 ± 13.9% | Accumulation in bone (in words) [2]: high accumulation in bone | Blood clearance (in words) [2]: rapid blood clearance

O=C(O)CC[C@H](NC(=O)[C@H](CCC(=O)O)NC(=O)[C@H](CCC(=O)O)NC(=O)[C@H](CCC(=O)O)NC(=O)[C@H](CCC(=O)O)NC(=O)[C@H](CCC(=O)O)NC(=O)[C@H](CCC(=O)O)NC(=O)[C@H](CCC(=O)O)NC(=O)[C@H](CCC(=O)O)NC(=O)[C@H](CCC(=O)O)NC(=O)[C@H](CCC(=O)O)NC(=O)[C@H](CCC(=O)O)NC(=O)[C@H](CCC(=O)O)NC(=O)[C@H](CCC(=O)O)NC(=O)CN1CCN(CC(=O)O)CCN(CC(=O)O)CCN(CC(=O)O)CC1)C(=O)O [^67Ga-DOTA-(L-Glu)14, metal not drawn]
tissue uptake dose at 10 min ([3]; mouse, in vivo, iv, Blood): 1.85 %ID | tissue uptake dose at 1 h ([3]; mouse, in vivo, iv, Blood): 0.12 %ID | tissue uptake dose at 3 h ([3]; mouse, in vivo, iv, Blood): 0.05 %ID | tissue uptake dose at 10 min [3, 4]: 9.81 %ID | tissue uptake dose at 1 h [3, 4]: 11.1 %ID | tissue uptake dose at 3 h [3, 4]: 10.9 %ID | tissue uptake dose at 10 min ([3]; mouse, in vivo, iv, Brain): 0.05 %ID | tissue uptake dose at 1 h ([3]; mouse, in vivo, iv, Brain): 0.01 %ID | tissue uptake dose at 3 h ([3]; mouse, in vivo, iv, Brain): 0.03 %ID | tissue uptake dose at 10 min ([3]; mouse, in vivo, iv, Heart): 0.67 %ID | tissue uptake dose at 1 h ([3]; mouse, in vivo, iv, Heart): 0.1 %ID | tissue uptake dose at 3 h ([3]; mouse, in vivo, iv, Heart): 0.06 %ID | tissue uptake dose at 10 min ([3]; mouse, in vivo, iv, Kidney): 22.1 %ID | tissue uptake dose at 1 h ([3]; mouse, in vivo, iv, Kidney): 26.4 %ID | tissue uptake dose at 3 h ([3]; mouse, in vivo, iv, Kidney): 25.1 %ID | tissue uptake dose at 10 min [3, 5]: 0.37 %ID | tissue uptake dose at 1 h [3, 5]: 0.07 %ID | tissue uptake dose at 3 h [3, 5]: 0.23 %ID | tissue uptake dose at 10 min ([3]; mouse, in vivo, iv, Liver): 0.47 %ID | tissue uptake dose at 1 h ([3]; mouse, in vivo, iv, Liver): 0.13 %ID | tissue uptake dose at 3 h ([3]; mouse, in vivo, iv, Liver): 0.14 %ID | tissue uptake dose at 10 min ([3]; mouse, in vivo, iv, Lung): 1.57 %ID | tissue uptake dose at 1 h ([3]; mouse, in vivo, iv, Lung): 0.13 %ID | tissue uptake dose at 3 h ([3]; mouse, in vivo, iv, Lung): 0.06 %ID | tissue uptake dose at 10 min ([3]; mouse, in vivo, iv, Muscle): 0.63 %ID | tissue uptake dose at 1 h ([3]; mouse, in vivo, iv, Muscle): 0.1 %ID | tissue uptake dose at 3 h ([3]; mouse, in vivo, iv, Muscle): 0.3 %ID | tissue uptake dose at 10 min ([3]; mouse, in vivo, iv, Pancreas): 0.59 %ID | tissue uptake dose at 1 h ([3]; mouse, in vivo, iv, Pancreas): 0.13 %ID | tissue uptake dose at 3 h ([3]; mouse, in vivo, iv, Pancreas): 0.08 %ID | tissue uptake dose at 10 min [3, 6]: 0.5 %ID | tissue uptake dose at 1 h [3, 6]: 0.13 %ID | tissue uptake dose at 3 h [3, 6]: 0.15 %ID | tissue uptake dose at 10 min ([3]; mouse, in vivo, iv, Spleen): 0.44 %ID | tissue uptake dose at 1 h ([3]; mouse, in vivo, iv, Spleen): 0.1 %ID | tissue uptake dose at 3 h ([3]; mouse, in vivo, iv, Spleen): 0.11 %ID | tissue uptake dose at 10 min ([3]; mouse, in vivo, iv, Stomach): 0.22 %ID | tissue uptake dose at 1 h ([3]; mouse, in vivo, iv, Stomach): 0.07 %ID | tissue uptake dose at 3 h ([3]; mouse, in vivo, iv, Stomach): 0.07 %ID | Accumulation of radioactivity in bone (in words) ([3]; mouse, in vivo, iv): high accumulation and retention of radioactivity in bone | Clearance from the blood (in words) ([3]; mouse, in vivo, iv): rapid clearance from the blood | Radioactivity in the kidneys (in words) ([3]; mouse, in vivo, iv): retained

O.O.O=P([O-])([O-])CP(=O)([O-])[O-].[99Tc+4] [^99mTc-MDP, ^99mTc-methylenediphosphonate, reference compound]
Biodistribution of radioactivity, Blood ([3]; i.v., 10 min after injection): 2.43 (0.10) % injected dose | Biodistribution of radioactivity, Bone (Femur) ([3]; i.v., 10 min after injection): 20.76 (1.51) % injected dose | Biodistribution of radioactivity, Brain ([3]; i.v., 10 min after injection): 0.06 (0.01) % injected dose | Biodistribution of radioactivity, Heart ([3]; i.v., 10 min after injection): 0.94 (0.05) % injected dose | Biodistribution of radioactivity, Kidney ([3]; i.v., 10 min after injection): 10.44 (1.56) % injected dose | Biodistribution of radioactivity, Large-intestine ([3]; i.v., 10 min after injection): 0.61 (0.20) % injected dose | Biodistribution of radioactivity, Liver ([3]; i.v., 10 min after injection): 0.61 (0.02) % injected dose | Biodistribution of radioactivity, Lung ([3]; i.v., 10 min after injection): 1.80 (0.16) % injected dose | Biodistribution of radioactivity, Muscle ([3]; i.v., 10 min after injection): 0.57 (0.09) % injected dose | Biodistribution of radioactivity, Pancreas ([3]; i.v., 10 min after injection): 0.77 (0.10) % injected dose | Biodistribution of radioactivity, Small-intestine ([3]; i.v., 10 min after injection): 0.69 (0.15) % injected dose | Biodistribution of radioactivity, Spleen ([3]; i.v., 10 min after injection): 0.54 (0.07) % injected dose | F/B ratio (Femur:blood ratio) ([3]; i.v., 10 min after injection): 8.54 (0.57) | Biodistribution of radioactivity, Stomach ([3]; i.v., 10 min after injection): 0.63 (0.14) % injected dose | Biodistribution of radioactivity, Blood ([3]; i.v., 60 min after injection): 0.23 (0.04) % injected dose | Biodistribution of radioactivity, Bone (Femur) ([3]; i.v., 60 min after injection): 27.92 (3.25) % injected dose | Biodistribution of radioactivity, Brain ([3]; i.v., 60 min after injection): 0.02 (0.00) % injected dose | Biodistribution of radioactivity, Heart ([3]; i.v., 60 min after injection): 0.16 (0.02) % injected dose | Biodistribution of radioactivity, Kidney ([3]; i.v., 60 min after injection): 2.03 (0.50) % injected dose | Biodistribution of radioactivity, Large-intestine ([3]; i.v., 60 min after injection): 0.14 (0.04) % injected dose | Biodistribution of radioactivity, Liver ([3]; i.v., 60 min after injection): 0.27 (0.05) % injected dose | Biodistribution of radioactivity, Lung ([3]; i.v., 60 min after injection): 0.30 (0.03) % injected dose | Biodistribution of radioactivity, Muscle ([3]; i.v., 60 min after injection): 0.13 (0.04) % injected dose | Biodistribution of radioactivity, Pancreas ([3]; i.v., 60 min after injection): 0.13 (0.02) % injected dose | Biodistribution of radioactivity, Small-intestine ([3]; i.v., 60 min after injection): 1.55 (1.68) % injected dose | Biodistribution of radioactivity, Spleen ([3]; i.v., 60 min after injection): 0.14 (0.02) % injected dose | F/B ratio (Femur:blood ratio) ([3]; i.v., 60 min after injection): 120.87 (9.30) | Biodistribution of radioactivity, Stomach ([3]; i.v., 60 min after injection): 0.70 (0.37) % injected dose | Biodistribution of radioactivity, Blood ([3]; i.v., 180 min after injection): 0.05 (0.01) % injected dose | Biodistribution of radioactivity, Bone (Femur) ([3]; i.v., 180 min after injection): 29.03 (2.12) % injected dose | Biodistribution of radioactivity, Brain ([3]; i.v., 180 min after injection): 0.01 (0.00) % injected dose | Biodistribution of radioactivity, Heart ([3]; i.v., 180 min after injection): 0.07 (0.02) % injected dose | Biodistribution of radioactivity, Kidney ([3]; i.v., 180 min after injection): 1.22 (0.36) % injected dose | Biodistribution of radioactivity, Large-intestine ([3]; i.v., 180 min after injection): 0.23 (0.07) % injected dose | Biodistribution of radioactivity, Liver ([3]; i.v., 180 min after injection): 0.16 (0.04) % injected dose | Biodistribution of radioactivity, Lung ([3]; i.v., 180 min after injection): 0.10 (0.02) % injected dose | Biodistribution of radioactivity, Muscle ([3]; i.v., 180 min after injection): 0.06 (0.01) % injected dose | Biodistribution of radioactivity, Pancreas ([3]; i.v., 180 min after injection): 0.07 (0.01) % injected dose | Biodistribution of radioactivity, Small-intestine ([3]; i.v., 180 min after injection): 0.26 (0.08) % injected dose | Biodistribution of radioactivity, Spleen ([3]; i.v., 180 min after injection): 0.07 (0.01) % injected dose | F/B ratio (Femur:blood ratio) ([3]; i.v., 180 min after injection): 546.64 (91.83) | Biodistribution of radioactivity, Stomach ([3]; i.v., 180 min after injection): 0.29 (0.07) % injected dose | Accumulation of radioactivity in bone (in words) ([3]; normal mice, i.v.): high accumulation and retention of radioactivity in bone
